# Reference: ChEMBL document CHEMBL3507680, “University of Dundee, Gates Library screen for HepG2 cell viability”
# Assay: Human HepG2 cell viability assay in 384 well format
# Type: toxicity, cell-based
# Parameters: dose 125 nL, time 70.5 hour; concentration not given beside the values
# Settings: HepG2 cells, read-out: Inhibition
row,Structure (SMILES),cytotoxicity at 70.5 h [%]
1,COc1ccc(CNCCn2c(C)nc3ccccc32)cc1O,-8.82
2,Cn1cc(C2CCCN2C(=O)c2cnc(C3CC3)s2)cn1 (stereo not given),-5
3,O=C(Nc1ccccc1)[C@H]1CN2CCC1C[C@@H]2Cn1cc(CO)nn1 (stereo not given in full),-9.02
4,COCCN1CCC(c2nc3ccc(NC4CCC4)cn3n2)CC1,0.236
5,COCC1CN(Cc2ccc(F)cc2)Cc2nn(C)cc21 (stereo not given),-3
6,COCc1ccc(C(=O)N2CCC(c3cc4nccnc4[nH]3)CC2)cc1,-14.3
7,NC(=O)CSc1ccccc1NC(=O)CC1C=CCC1 (stereo not given),27.1
8,CC(C(=O)N1CCOCC1)N1CCc2cncnc2C1 (stereo not given),-4.71
9,CN1C[C@H](O)C[C@H]1c1nc(-c2ccc(OC(F)(F)F)cc2)no1,-6.54
10,CN(C)CCN1CC2(CCCN(c3ccc(Cl)cn3)C2)CCC1=O (stereo not given),3.01
11,COCC1CC2(CCNCC2)CN1Cc1csc(C)n1 (stereo not given),-8.39
12,COCCN1CC[C@]2(CN(C(=O)c3cccs3)C[C@H]2C)C1=O,-10.6
13,CC(C)S(=O)(=O)NCC(Cc1cccc(F)c1)N1CCNC1=O (stereo not given),-15.5
14,CC(=O)NCC(=O)N1CCC(c2cncc(Oc3cccnc3)n2)CC1,-9.15
15,CC(C)=CCN1C(=O)[C@H]2CC[C@@H]1CN(c1ncccc1C(N)=O)C2,-9.49
16,O=C(c1ccnnc1)N1CCC2(CC1)CC(N1CCOCC1)C2,33.7
17,COc1ncnc2c1CCN(C(=O)Cc1cccc(F)c1)CC2,-3.34
18,Cc1nc(CN2CCC3(CCCN(C(=O)c4cnccn4)C3)C2)cs1 (stereo not given),-2.34
19,O=C(CCn1cccn1)NCCOc1ccc2c(c1)OCO2,-6.03
20,O=C(NCc1ccc(Cl)cc1Cl)NCC1(O)CCSC1 (stereo not given),18.5
21,Cc1cc2nc(C(C)C)cc(NC(C)c3nncn3C3CCCC3)n2n1 (stereo not given),-11.7
22,COc1ccc(C)cc1NS(=O)(=O)c1ccc(CCNC(C)=O)s1,-4.06
23,CN(CCCOc1ccc(F)cc1)S(=O)(=O)c1cnn(C)c1,-8.61
24,CN1C(=O)COc2ccc(NC(=O)CCc3nc4cccnc4[nH]3)cc21,-9.73
25,O=C1CC2(CCN(CC3CC3)CC2)CN1Cc1cc(F)cc(F)c1,-2.81
26,Cc1ccc(NCc2cc(C#N)ccc2F)cc1-n1nnnc1C,-13.2
27,Cc1cnn(CC2CCCN2Cc2noc(C(C)(C)C)n2)c1 (stereo not given),-2.54

row,Structure (SMILES),cytotoxicity at 70.5 h [%]
1,CC(C)C1CN(C(=O)c2cc(C3CC3)n[nH]2)CCC(=O)N1CC1CC1 (stereo not given),-3.1
2,CCc1nc(CN2CCN(C(=O)c3cc(C)no3)CC2)cs1,-8.13
3,CSCc1noc(CN2CC(Cc3ccccc3)CC2=O)n1 (stereo not given),-13
4,CCN(CC)C(=O)c1nnn(-c2ccc(C)cc2)c1C1CC1,-7.41
5,Cc1cc(C)n(CC2CCCCN2CC(=O)Nc2c(C)n[nH]c2C)n1 (stereo not given),2.06
6,COCCN1CC(C(=O)Nc2ccc3c(c2)CCC(=O)N3C)CC1=O (stereo not given),0.117
7,CC(C(=O)O)n1nc(C(F)(F)F)c(Cl)c1C1CC1 (stereo not given),5.37
8,Cc1cccc(N2CC[C@@H]3[C@@H](CO[C@H]3CNS(C)(=O)=O)C2)n1,10.6
9,CN(C)C(=O)C1CCC2(CCN(Cc3cnn(C)c3)CC2)C1 (stereo not given),-7.73
10,CNC(=O)c1ccnc(N2CCCC(COc3cccc(C)c3)C2)c1 (stereo not given),-20.4
11,CCN1CC2(CC1=O)CN(Cc1cnn(C)c1)CCN(C(=O)C(C)C)C2 (stereo not given),-4.6
12,CCCc1nc(C)cc(N2CCC3(CCC(=O)N(CC4CC4)C3)CC2)n1,-11.1
13,O[C@@H]1CN(Cc2ccc(F)cc2)CC[C@H]1NCc1ccccn1,15.4
14,O=C(Nc1ccc2c(c1)C(=O)NC2)c1ccc(S(=O)(=O)C(F)(F)F)cc1,-2.46
15,O=C(NCC(O)c1ccsc1)Nc1cccs1 (stereo not given),25.4
16,O=C(O)C(c1ccc2c(c1)OCO2)N1CCC(O)(c2cccnc2)CC1 (stereo not given),0.616
17,COc1ccc(CNC(=O)NC(C)(CO)C2CC2)c(C(F)(F)F)c1 (stereo not given),0.673
18,O=C(c1cnoc1)N1CCC[C@]2(C[C@@H](OCc3ccccn3)CO2)C1,-9.96
19,COCC(C)NC(=O)Nc1cc(-c2ccccc2C)nn1CCO (stereo not given),-4.5
20,Cc1cc2n(n1)CC(CNC1CCN(CCc3ccccc3)CC1)CN2 (stereo not given),0.368
21,CS(=O)(=O)N1CCCC(Cc2ccnc3ccncc23)CC1 (stereo not given),-0.73
22,CC(NC(=O)c1cc(C(C)C)[nH]n1)C(=O)Nc1ccccc1 (stereo not given),-6.22
23,Cc1oc(-c2ccc(F)cc2F)nc1CN1C[C@@H](C)O[C@@H](C)C1,15.1
24,O=C(CSCC1CC1)N1CCCC2(CCC(=O)N(CC3CC3)C2)C1 (stereo not given),-25.9
25,O=C(c1cnc(-c2ccccc2)nc1)N1CCOC2(CCCC2)C1,-8.9
26,COCc1nc(C2CC2)nn1-c1cccc(F)c1,-7.42
27,CC(C)CN(C)c1ccc(C(=O)N2CCCC2c2cnn(C)c2)cn1 (stereo not given),21.8

row,Structure (SMILES),cytotoxicity at 70.5 h [%]
1,CC(OCc1ccccc1)C(=O)NCc1ccc(N(C)C)cc1 (stereo not given),-12.6
2,Cc1nc(CCNC(=O)NC2CCCN(c3ncccn3)C2)cs1 (stereo not given),23.9
3,N[C@@H]1c2ccccc2C2(CCN(c3cnc4ccccc4n3)CC2)[C@H]1O,-9.08
4,COC(=O)N1CCc2ccc(NC(=O)c3cn(C)nn3)cc2C1,-4.27
5,COCCCNC(=O)c1ccccc1-n1cc(CN(C)C)cn1,-7.43
6,Cc1cc(C)n(CC2CCCN2C(=O)c2ccc(NC3CC3)nc2)n1 (stereo not given),20.6
7,CCn1ccnc1CN1CCC(CCC(=O)Nc2ccccc2Cl)CC1,11.7
8,COCC(=O)N[C@@H]1CN(Cc2ccc3c(c2)OCCO3)C[C@H]1O,9.74
9,Cc1cc(=O)n(CC(=O)NCCC(C)C)c(-c2cccc(Cl)c2)n1,-1.79
10,COCCNC(=O)CSc1nnc(OC(C)C)s1,-10.2
11,COc1ccccc1OCC(=O)NS(=O)(=O)c1ccccc1F,-0.501
12,Cc1noc(C)c1CN(C)C(=O)CN1CC(c2ccccc2)CC1=O (stereo not given),-6.3
13,CCCN1CCCn2nc(CNC(=O)CN(C)C3CCCC3)cc2C1,-8
14,CS(=O)(=O)N1CCC2(CCN(C(=O)c3cccnc3)CC2)C1,-7.54
15,CC1=N[C@@]2(CC[C@@H]3CN(C(=O)NCC(C)C)C[C@@H]32)C(=O)N1CC(C)C,12.3
16,COc1ccc(N)c(N2CCN(C(C)=O)CC2)n1,-11
17,COC(=O)c1ccc(N2CCN(C(=O)c3ccco3)C(C)C2)cc1 (stereo not given),-3.57
18,CCS(=O)(=O)N1CCCC(c2ccnc(N(C)C)c2)C1 (stereo not given),-6.79
19,Cc1ncsc1CCC(=O)NC1CCN(c2ccc(Cl)nn2)CC1,-13.9
20,CC(C)CCN1C2(CCN(C(=O)CN(C)C)C2)c2ccccc2S1(=O)=O (stereo not given),-5.18
21,Cc1ccc(C(N)c2cccs2)cc1 (stereo not given),31.8
22,CCOC(=O)NC(CNC(=O)c1ccccn1)CC(C)C (stereo not given),-4.75
23,COc1ccc(N(Cc2ccco2)C(=O)C2CCCO2)cc1F (stereo not given),-2.54
24,CS(=O)(=O)N1CCC(O)(Cn2c(C3CC3)nc3ccccc3c2=O)CC1,-1.88
25,CCn1nc(C)c2nc(C(C)C)nc(NCc3ccccn3)c21,0.25
26,O=C(Cn1cc(Cl)cn1)N1CCCC(c2ccn[nH]2)C1 (stereo not given),-7.33
